Data reported in ChEMBL document CHEMBL1148537, “The first de novo designed inhibitors of Plasmodium falciparum dihydroorotate dehydrogenase” (Bioorg Med Chem Lett, 2006).
Each block holds one compound with its values, some of them ahead of it.

Key:
[1] = molecular target: T1, Dihydroorotate dehydrogenase (Plasmodium falciparum, UniProt Q54A96); experiment: Binding affinity to Plasmodium falciparum DHODH; settings: for Ki: read-out: Ki app
T1 sequence (Q54A96 whole entry): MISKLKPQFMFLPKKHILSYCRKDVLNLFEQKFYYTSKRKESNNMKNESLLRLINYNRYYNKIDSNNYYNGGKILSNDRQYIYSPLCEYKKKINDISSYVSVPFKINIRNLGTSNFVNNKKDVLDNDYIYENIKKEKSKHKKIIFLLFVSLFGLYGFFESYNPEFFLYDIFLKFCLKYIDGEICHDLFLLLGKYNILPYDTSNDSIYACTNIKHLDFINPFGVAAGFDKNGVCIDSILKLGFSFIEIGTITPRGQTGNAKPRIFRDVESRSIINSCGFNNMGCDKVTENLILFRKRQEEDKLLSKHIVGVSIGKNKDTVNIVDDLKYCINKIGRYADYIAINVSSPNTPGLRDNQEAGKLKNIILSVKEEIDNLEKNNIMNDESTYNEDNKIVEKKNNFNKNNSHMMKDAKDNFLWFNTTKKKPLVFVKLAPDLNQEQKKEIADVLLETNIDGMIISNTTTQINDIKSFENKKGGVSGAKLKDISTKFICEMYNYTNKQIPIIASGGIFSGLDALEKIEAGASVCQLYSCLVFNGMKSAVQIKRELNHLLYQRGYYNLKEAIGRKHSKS

[2] = molecular target: Dihydroorotate dehydrogenase (quinone), mitochondrial (Homo sapiens, UniProt Q02127); experiment: Binding affinity to human DHODH
Chain of Dihydroorotate dehydrogenase (quinone), mitochondrial (Q02127 whole entry): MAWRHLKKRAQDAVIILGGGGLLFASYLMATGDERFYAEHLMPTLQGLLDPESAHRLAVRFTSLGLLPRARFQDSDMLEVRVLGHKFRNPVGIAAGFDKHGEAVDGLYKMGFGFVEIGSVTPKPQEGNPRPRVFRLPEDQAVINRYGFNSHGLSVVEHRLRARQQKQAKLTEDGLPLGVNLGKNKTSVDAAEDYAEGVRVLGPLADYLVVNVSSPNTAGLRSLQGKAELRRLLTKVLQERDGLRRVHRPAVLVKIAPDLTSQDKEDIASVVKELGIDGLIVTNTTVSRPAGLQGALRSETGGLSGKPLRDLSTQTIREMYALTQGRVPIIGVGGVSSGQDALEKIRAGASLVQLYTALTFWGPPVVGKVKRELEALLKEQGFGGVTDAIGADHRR

IC50 [1]: > 200 µM
IC50 [2]: > 200 µM
SMILES: CN(C(=O)c1ccc2ccccc2c1)c1ccccc1C(=O)O

IC50 [1]: 154 µM
Ki [1]: 17.7 µM
IC50 [2]: 5 µM
Ki [2]: 0.7 µM
SMILES: O=C(Nc1ccccc1C(=O)O)c1ccc(-c2ccccc2)cc1

IC50 [1]: 143 µM
Ki [1]: 16.4 µM
IC50 [2]: 8.4 µM
Ki [2]: 1.1 µM
SMILES: O=C(Nc1ccccc1C(=O)O)c1ccc2cc(Br)ccc2c1

Further lines, the compound ahead of its results:

SMILES: O=C(Nc1ccccc1C(=O)O)c1ccc2ccccc2c1
IC50 [1]: > 200 µM
IC50 [2]: 13.8 µM
Ki [2]: 1.8 µM

SMILES: CN(C(=O)c1ccc(-c2ccccc2)cc1)c1ccccc1C(=O)O
IC50 [1]: 42.6 µM
Ki [1]: 4.9 µM
IC50 [2]: > 200 µM

SMILES: CN(C(=O)c1ccc2cc(Br)ccc2c1)c1ccccc1C(=O)O
IC50 [1]: 93.4 µM
Ki [1]: 10.8 µM
IC50 [2]: > 200 µM
